According to PubChem BioAssay (NCI):
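Test compounds were applied to cells in 96-well plates for 48 hours at 5 doses. At the TGI there is no net growth.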

Tested on: PC-3 prostate
Test: NCI anticancer screen, dose series, 48 h

| SMILES | TGI [µM] |
| --- | --- |
| CCCNC(=O)NNC(=O)c1c[nH]c2nc(C)ccc2c1=O | > 100 |
| C=CCCON(C(=O)OC(C)(C)C)C(C)(C)C | > 100 |
| CCOC(=O)Nc1[nH]cc(-c2ccccc2)c1C#N | > 100 |
| NC(N)=NS(=O)(=O)c1ccc(NNc2c3ccccc3nc3c(C(=O)Nc4ccc(S(=O)(=O)Nc5ncccn5)cc4)cccc23)cc1 | > 100 |
| O=c1oc2ccccc2cc1-c1cc2ccccn2c1 | > 100 |
| COC(=O)c1c(O)ccc2c1c1c(n2Cc2cc(OC)cc(OC)c2)C(=O)c2ccccc2C1 | 49.1 |
| COC[C@@H](N=CC(C)(C)C)C(C)C | > 100 |
| NC(N)=NCCN1CC2CCC(CC2)C1 | > 100 |
| O=C1COc2cccnc2N1CCCCO | > 100 |
| CCOC(=O)NC(Nc1ccc(C)cc1)(C(F)(F)F)C(F)(F)F | > 100 |
| [N-]=[N+]=Nc1c([N+](=O)[O-])c(=O)n(-c2ccccc2)c2ccccc12 | 83.9 |
| O=[N+]([O-])c1ccc2[nH]c(=S)[nH]c(=S)c2c1 | > 100 |

Tested on: SW-620 colon
Test: NCI anticancer screen, dose series, 48 h

| SMILES | TGI [µM] |
| --- | --- |
| O=[N+]([O-])C[C@@]12O[C@]3(O)C4C5CC(C6C5C3C61)C42 (some centres not stated) | > 100 |
| O=C1C2SC34c5c2c2ccccc2n5CCC3CCCN14 (configuration not stated) | > 100 |
| CCCC(=O)NC(NC1CCCCC1)(C(=O)OCC)C(F)(F)F (configuration not stated) | > 100 |
| O=C(/C=C/c1ccccc1)Oc1cccc(O)c1 | 37.9 |
| Cc1c2n(c(=O)[nH]c1=O)C1OC(CO)C(O2)C1O (configuration not stated) | > 100 |
| COc1cccc(C(=O)Oc2ccc(OS(=O)(=O)c3ccc(C)cc3)cc2)c1C#N | > 100 |
| CC1(C)/C(=N\NC(N)=O)C2CCC1C2 (configuration not stated) | > 100 |
| Cc1ccc(C2SCC(=O)N2c2ccc(-n3c(-c4ccccc4)nc4ccccc4c3=O)cc2)cc1 (configuration not stated) | > 100 |
| CC1(C)[C@@H](Cn2ccc(=O)[nH]c2=O)CC[C@@]1(C)CO | > 100 |
| CC(C)C1=CC23CCC4C(C)(C(=O)O)CCCC4(C)C2CC1C1C(=O)N(c2ccc(Cc4ccc(N5C(=O)C6C7CC8C9(C)CCCC(C)(C(=O)O)C9CCC8(C=C7C(C)C)C6C5=O)cc4)cc2)C(=O)C13 (configuration not stated) | 31.2 |
| CCCNC(=O)NNC(=O)c1c[nH]c2nc(C)ccc2c1=O | > 100 |
| C=CCCON(C(=O)OC(C)(C)C)C(C)(C)C | > 100 |
| CCOC(=O)Nc1[nH]cc(-c2ccccc2)c1C#N | > 100 |
| [N-]=[N+]=NC1(Cc2ccccc2)C(=O)c2cccc3c2N(CCC3)C1=O (configuration not stated) | > 100 |
| NC(N)=NS(=O)(=O)c1ccc(NNc2c3ccccc3nc3c(C(=O)Nc4ccc(S(=O)(=O)Nc5ncccn5)cc4)cccc23)cc1 | > 100 |
| O=c1oc2ccccc2cc1-c1cc2ccccn2c1 | > 100 |
| COC(=O)c1c(O)ccc2c1c1c(n2Cc2cc(OC)cc(OC)c2)C(=O)c2ccccc2C1 | > 100 |
| COC[C@@H](N=CC(C)(C)C)C(C)C | > 100 |
| NC(N)=NCCN1CC2CCC(CC2)C1 | > 100 |
| O=C1COc2cccnc2N1CCCCO | > 100 |
| O=[N+]([O-])c1cccc(C2=NN(c3ccccc3)C[N+](c3ccc(Br)cc3)=N2)c1 | > 100 |
| O=C(O)CCCc1nc2c(n1Cc1ccccc1)C(=O)c1ccccc1C2=O | > 100 |
| CCOC(=O)NC(Nc1ccc(C)cc1)(C(F)(F)F)C(F)(F)F | > 100 |
| [N-]=[N+]=Nc1c([N+](=O)[O-])c(=O)n(-c2ccccc2)c2ccccc12 | 58.4 |

Tested on: A549 NSCLC
Test: NCI anticancer screen, dose series, 48 h

| SMILES | TGI [µM] |
| --- | --- |
| O=[N+]([O-])C[C@@]12O[C@]3(O)C4C5CC(C6C5C3C61)C42 (some centres not stated) | > 100 |
| O=C1C2SC34c5c2c2ccccc2n5CCC3CCCN14 (configuration not stated) | > 100 |
| CCCC(=O)NC(NC1CCCCC1)(C(=O)OCC)C(F)(F)F (configuration not stated) | > 100 |
| O=C(/C=C/c1ccccc1)Oc1cccc(O)c1 | > 100 |
| Cc1c2n(c(=O)[nH]c1=O)C1OC(CO)C(O2)C1O (configuration not stated) | > 100 |
| COc1cccc(C(=O)Oc2ccc(OS(=O)(=O)c3ccc(C)cc3)cc2)c1C#N | > 100 |
| CC1(C)/C(=N\NC(N)=O)C2CCC1C2 (configuration not stated) | > 100 |
| Cc1ccc(C2SCC(=O)N2c2ccc(-n3c(-c4ccccc4)nc4ccccc4c3=O)cc2)cc1 (configuration not stated) | > 100 |
| CC1(C)[C@@H](Cn2ccc(=O)[nH]c2=O)CC[C@@]1(C)CO | > 100 |
| CC(C)C1=CC23CCC4C(C)(C(=O)O)CCCC4(C)C2CC1C1C(=O)N(c2ccc(Cc4ccc(N5C(=O)C6C7CC8C9(C)CCCC(C)(C(=O)O)C9CCC8(C=C7C(C)C)C6C5=O)cc4)cc2)C(=O)C13 (configuration not stated) | 15.7 |
| Cn1c(=O)c2c(ncn2CCNC(CO)C(O)c2ccc([N+](=O)[O-])cc2)n(C)c1=O (configuration not stated) | > 100 |
| CCCNC(=O)NNC(=O)c1c[nH]c2nc(C)ccc2c1=O | > 100 |
| C=CCCON(C(=O)OC(C)(C)C)C(C)(C)C | > 100 |
| CCOC(=O)Nc1[nH]cc(-c2ccccc2)c1C#N | > 100 |
| [N-]=[N+]=NC1(Cc2ccccc2)C(=O)c2cccc3c2N(CCC3)C1=O (configuration not stated) | > 100 |
| NC(N)=NS(=O)(=O)c1ccc(NNc2c3ccccc3nc3c(C(=O)Nc4ccc(S(=O)(=O)Nc5ncccn5)cc4)cccc23)cc1 | > 100 |
| O=c1oc2ccccc2cc1-c1cc2ccccn2c1 | > 100 |
| COC(=O)c1c(O)ccc2c1c1c(n2Cc2cc(OC)cc(OC)c2)C(=O)c2ccccc2C1 | > 100 |
| COC[C@@H](N=CC(C)(C)C)C(C)C | > 100 |
| NC(N)=NCCN1CC2CCC(CC2)C1 | > 100 |
| O=C1COc2cccnc2N1CCCCO | > 100 |
